Nine compounds from the supplement of paper PMC11061612 can be followed below.

Experiment [1] deals with MDA-MB-175-VII (Breast Carcinoma). Put plainly: Bliss excess, mean over the matrix (fraction); higher = more synergy. The method, boiled down:
(§1)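 Cell lines grown in DMEM/F12 or RPMI with 10% FBS were plated in 1536-well plates and held 24 hours at 37°C, 5% CO2 before 72 hours of exposure to two-drug dose matrices, with DMSO typically at 0.2%. CellTiter-Glo 2.0 luminescence gave viability, which was converted to inhibition. Vehicle wells were set to 0 and blank wells to 1. Combination Emax is the second-highest inhibition in the matrix, and Bliss excess is the observed combination effect minus the expected EA + EB − EA·EB, where EA and EB are the single-agent effects.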

Experiment [2] concerns NCI-H1648 (Lung Adenocarcinoma). Described as above. The method, boiled down: as §1
The subject of experiment [3] is GCIY (Gastric Carcinoma). The experiment can be described thus: combination Emax (second highest fraction inhibited in the dose matrix, 72 h); higher = more inhibition; extreme values may be limits of the assay. The method, boiled down: as §1
Experiment [4] deals with L-363 (Plasma Cell Myeloma). The description is as above. The method, boiled down:
as §1

Experiment [5] has as its system NCI-H2009 (Lung Adenocarcinoma). The experiment is described as above. Put shortly:
as §1

For experiment [6], the system named is SW1463 (Colorectal Carcinoma). The experiment is described as above. Put shortly: as §1
Experiment [7] has as its system HT-1197 (Bladder Carcinoma). The experiment can be described thus: Bliss excess, mean over the matrix (fraction); higher = more synergy. Put shortly: as §1
In experiment [8] the test system is JJN-3 (Plasma Cell Myeloma). Described as above. The method, boiled down: as §1
Experiment [9] deals with NCI-H1975 (Lung Adenocarcinoma). The experiment is described as above. Put shortly:
as §1

The subject of experiment [10] is SUP-HD1 (Hodgkin's Lymphoma). The experiment is described as above. The method, boiled down:
as §1

Experiment [11] has as its system TOV-21G (Ovarian Carcinoma). Described as above. Put shortly:
as §1

Experiment [12] relates to ATN-1 (T-Lymphoblastic Leukemia). The experiment can be described thus: combination Emax (second highest fraction inhibited in the dose matrix, 72 h); higher = more inhibition; extreme values may be limits of the assay. The method, boiled down:
as §1

Experiment [13] concerns C2BBe1 (Colorectal Carcinoma). The experiment is described as above. The method, boiled down:
as §1

Experiment [14] relates to HT-1197 (Bladder Carcinoma). Described as above. The method, boiled down:
as §1

For experiment [15], the system named is NCI-H1048 (Small Cell Lung Carcinoma). The experiment is described as above. The method, boiled down:
as §1

Experiment [16] deals with RS4-11 (B-Lymphoblastic Leukemia). The experiment is described as above. The method, boiled down: as §1
Experiment [17] has as its system SBC-5 (Small Cell Lung Carcinoma). The description is as above. The method, boiled down:
as §1

The test system of experiment [18] is SCC90 (Head and Neck Carcinoma). The experiment is described as above. The method, boiled down: as §1
In experiment [19] the test system is TK (B-Cell Non-Hodgkin's Lymphoma). The experiment is described as above. The method, boiled down:
as §1
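Wherever Bliss excess, mean over the matrix is given: after 72 h of two-drug dosing.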

In the case of `C=CCn1c(=O)c2cnc(Nc3ccc(N4CCN(C)CC4)cc3)nc2n1-c1cccc(C(C)(C)O)n1` [AZD1775] + CCc1c2c(nc3ccc(O)cc13)-c1cc3c(c(=O)n1C2)COC(=O)[C@]3(O)CC [SN-38] (first compound max 1 µM, partner max 0.3 µM), the Bliss excess was -0.0068 in [1] and -0.0217 in experiment [2]. Further, the “combination Emax” value in [3] came to 0.756; in experiment [4], 0.903; in experiment [5], 0.936; in experiment [6], 0.587.
Turning to `C=CCn1c(=O)c2cnc(Nc3ccc(N4CCN(C)CC4)cc3)nc2n1-c1cccc(C(C)(C)O)n1` [AZD1775] + Nc1ccn([C@@H]2O[C@H](CO)[C@@H](O)C2(F)F)c(=O)n1 [Gemcitabine] (first compound max 1 µM, partner max 0.3 µM), the Bliss excess in [1] is -0.0105; in experiment [2] it was -0.0038. The “combination Emax” value worked out at 0.764 in [3], 0.983 in experiment [4], 0.907 in experiment [5] and 0.763 in experiment [6].
For `CN(CCO)CC[C@H](CSc1ccccc1)Nc1ccc(S(=O)(=O)NC(=O)c2ccc(N3CCC([C@@H](O)c4ccccc4-c4ccc(Cl)cc4)CC3)cc2)cc1S(=O)(=O)C(F)(F)F` [AZD4320] + CS(=O)(=O)CCNCc1ccc(-c2ccc3ncnc(Nc4ccc(OCc5cccc(F)c5)c(Cl)c4)c3c2)o1 [Lapatinib] (first compound max 1 µM, 7x7, partner max 10 µM), the Bliss excess in [1] was 0.0728; in experiment [2], -0.0316. Besides, the “combination Emax” value in [3] is 0.956; in [4], 0.154; in experiment [5] it was 0.349; in [6], 0.974.
On to `Cc1c2c(nn1C)CSCc1cc(n(C)n1)CSc1cc(c3ccccc3c1)OCCCc1c(C(=O)O)n(C)c3c-2c(Cl)ccc13` [AZD5991] + CS(=O)(=O)CCNCc1ccc(-c2ccc3ncnc(Nc4ccc(OCc5cccc(F)c5)c(Cl)c4)c3c2)o1 [Lapatinib] (first compound max 1 µM, 7x7, partner max 10 µM), for which the values for the Bliss excess in [1] and in experiment [2] were 0.04 and -0.023, respectively. Besides, the “combination Emax” value in experiment [3] came out at 0.447; in experiment [4] it was 0.993; in experiment [5], 0.237; in experiment [6] it was 0.51.
On to `Cc1c2c(nn1C)CSCc1cc(n(C)n1)CSc1cc(c3ccccc3c1)OCCCc1c(C(=O)O)n(C)c3c-2c(Cl)ccc13` [AZD5991] + Cc1cc2ncnn2cc1Nc1ncc2c(n1)n(C1CCOCC1)c(=O)n2C [AZD7648] (first compound max 1 µM, 7x7, partner max 10 µM), for which the Bliss excess in [7] was -0.059; in experiment [8], 0.0324; in experiment [1] it was -0.0055; in experiment [2], -0.0218; in experiment [9], -0.104; in [10] it was -0.104. In addition, the Bliss excess in [11] is -0.0461. In addition, the “combination Emax” value in experiment [12] came to 0.925; in [13] it was 0.356; in [3] it was 0.526; in experiment [14], 0.267; in experiment [4], 1; in experiment [15], 0.988. Further, the “combination Emax” value was 0.147 in experiment [5]; 0.501 in [16]; 0.419 in experiment [17]; 0.937 in experiment [18]; 0.223 in experiment [6]; 0.204 in experiment [19].
As for `Cc1c2c(nn1C)CSCc1cc(n(C)n1)CSc1cc(c3ccccc3c1)OCCCc1c(C(=O)O)n(C)c3c-2c(Cl)ccc13` [AZD5991] + Nc1ccn([C@@H]2O[C@H](CO)[C@@H](O)C2(F)F)c(=O)n1 [Gemcitabine] (first compound max 1 µM, 7x7, partner max 0.3 µM), the Bliss excess in experiment [1] is 0.0148; in experiment [2], -0.0061. Besides, the “combination Emax” value amounted to 0.649 in [3], 0.999 in experiment [4], 0.487 in experiment [5] and 0.516 in experiment [6].
As to `C[C@@H]1COCCN1c1cc(C2([S@](C)(=N)=O)CC2)nc(-c2ccnc3[nH]ccc23)n1` [AZD6738] + C1CC(C1)(C(=O)[O-])C(=O)[O-].N.N.[Pt+2] [Carboplatin] (first compound max 10 µM, 7x7, partner max 10 µM), the Bliss excess in experiment [1] is -0.0024; in experiment [2], -0.0579. In addition, the “combination Emax” value in [3] came to 0.643; in experiment [4] it was 0.528; in [5] it was 0.466; in experiment [6], 0.409.
Take `C[C@@H](Nc1cc(F)cc(F)c1)c1cc(C(=O)N(C)C)cc2c(=O)cc(N3CCOCC3)oc12` [AZD8186] + C1CN(CCC1(C(=O)N[C@@H](CCO)C2=CC=C(C=C2)Cl)N)C3=NC=NC4=C3C=CN4 [AZD5363] (first compound max 10 µM, 7x7, partner max 10 µM): the Bliss excess in experiment [1] is -0.0108; in experiment [2], -0.0377. Moreover, the “combination Emax” value was 0.743 in [3], 0.318 in [4], 0.26 in experiment [5] and 0.274 in [6].
With `C[C@@H](Nc1cc(F)cc(F)c1)c1cc(C(=O)N(C)C)cc2c(=O)cc(N3CCOCC3)oc12` [AZD8186] + CC(=O)c1c(C)c2cnc(Nc3ccc(N4CCNCC4)cn3)nc2n(C2CCCC2)c1=O [Palbociclib] (first compound max 10 µM, 7x7, partner max 10 µM), the values for the Bliss excess in experiment [1] and in experiment [2] were -0.0148 and 0.0672, respectively. Further, the “combination Emax” value is 0.662 in experiment [3], 0.737 in experiment [4], 0.256 in experiment [5] and 0.722 in experiment [6].
